# Columns and labels:
# rat brain homogenate = test: Peroxidation-inhibiting test of rat brain lipids (rat brain homogenate, TBA method); format: biochemical; details: for IC50: 1 hour at 37° C., malondialdehyde by A532, read-out: IC50 (50% inhibition concentration of rat brain lipid-peroxidation)
# Procedure: The lipid peroxidation-inhibiting assay with rat brain homogenate is an experimental system for evaluating damages of biological system caused by the generation of ROS (Reactive Oxygen Species). It is because the rat brain is an organ that is easily oxidized by ROS. Using this system, we evaluated antioxidative activity of compounds 1-5.
# Using rat brain homogenate, we examined lipid peroxidation-inhibiting activities of the test compounds. It was performed by incubating rat brain homogenate to proceed with lipid peroxidation reactions, with each compound and with no compound (as the control), by measuring the amounts of consequently generated malondialdehyde by absorbance at 532 nm in the TBA method, and by comparing the amounts of the malondialdehyde products between them.
# We preincubated IWAKI disposable test tube ([…]×100 mm) that contained 0.6 mL of 100 mM phosphate buffer (pH 7.4), 0.05 mL of each test sample-including solution, 0.1 mL of 1 mM ascorbic acid, and 0.05 mL of distilled water at 37° C. for 5 min. And 0.2 mL of 2.5% (w/v) rat brain homogenate was added to the test tube, and incubated for 1 hour at 37° C. with shaking (150 rpm). Then, 1 mL of 0.2 N HCl solution including 20% (W/V) trichloroacetic acid and 0.5% (W/V) 2-thiobarbituric acid was added to the above test tube to stop the reaction. Next, this test tube containing each reaction solution was boiled for 30 min at 100° C. to produce color. After chilled on ice, each solution from the test tube was centrifuged with 3,000 rpm for 10 min, and the absorbance of each supernatant was measured at 532 nm (A532).
# The lipid peroxidation-inhibiting ratio (%) of each extracted solution (containing each flavonoid glycoside as a test compound (T)) was calculated using the following Formula 1. (1−[T−B]/[C−B])′100. Formula 1
# T (test), C (control), and B (blank) are A532 of a test compound with the rat brain homogenate, the control (no compound (instead ethanol) with the homogenate), and the blank control (no compound (instead ethanol) without the homogenate (instead phosphate buffer)), respectively. The lipid peroxidation-inhibiting activity was determined as the IC50 value, representing the concentration at which 50% inhibition was observed.
# (Peroxidation-Inhibiting Test of Rat Brain Lipids)
# [1] = test system: mouse preadipocyte 3T3-L1; test: Differentiation-inducing test of mouse preadipocyte 3T3-L1 (Oil Red O staining); format: cell-based; details: 3T3-L1 cells, differentiation cocktail with insulin for 6 days
# From the text: Mouse preadipocyte 3T3-L1 is used for screening of activities for lipid metabolism improvement and anti-diabetes, since 3T3-L1 is induced to the differentiation of small adipocyte under proper conditions. This differentiated fat cell produces lipid bodies that can be stained with Oil Red O. PPAR (Peroxisome Proliferator-Activated Receptor) belongs to nuclear receptor superfamily. PPARγ is importantly related to differentiation of fat cells, e.g., activated PPARγ promotes differentiation from preadipocyte to adipocyte. Furthermore, PPARγ promotes apoptosis of large fat cells. Compounds activating PPARγ (PPARγ agonists) improve insulin resistance by inducing apoptosis of large fat cells that are willing to produce TNF-α and free fatty acids, reluctant to import sugars, and induce insulin resistance. PPARγ agonists further reduce blood glucose levels, and exert anti-diabetes activity by inducing differentiation to small fat cells that are reluctant to produce TNF-α and free fatty acids, willing to import glucose in blood, and improve glucose metabolism. Currently, PPARγ agonists such as rosiglitazone (thiazolidine) are used clinically to treat patients with type-2 diabetes mellitus.
# In the present EXAMPLE, we carried out to examine whether aromatic compound glycosides can promote differentiation to small fat cells, using mouse 3T3-L1 preadipocyte.
# Thus, we examined the PPARγ agonistic activities of compounds 3, 4, 20, and 21, which were selected as the representatives.
# The 3T3-L1 cell line was purchased from Japanese Collection of Research Bioresources Cell Bank (JCRB, Osaka, Japan). The 3T3-L1 cells were cultured in DMEM with 10% fetal calf serum (FCS, Sigma Aldrich, St Lous, USA) and antibiotics ([…]). The cells were seeded in collagen coated 12-well plates at 10,000 cells/well (1 mL) and grown to confluence for 2 days. The differentiation procedure was initiated 2 days after cells reached confluence by changing the medium to the differentiation cocktail ([…] in DMEM containing 10% FBS and antibiotics) with or without various concentrations of test compounds (positive control, thiazolidine; four aromatic compound glycosite) dissolved in DMSO (10^3-10^4 times dilutions of the stocks were used). Thereafter, the cells were grown in the differentiation cocktail for 6 days.
# Then, Oil Red O (ORO) staining was performed to evaluate the ratio of the differentiated 3T3-L1 cells. […] ORO was then extracted from fixed cells with 100% isopropanol (1 mL), and OD500 values of isopropanol solution, which reflect the ORO amount imported into the cells (=the lipid (body) amount of the differentiated cells), were measured by 96-well microplate reader. […]
IC50 (rat brain homogenate),Compound,activity for differentiation induction to small fat cells (adipose) [1],lipid peroxidation-inhibiting activity (in words) (rat brain homogenate)
1700 nM,CC1OC(Oc2cc(O)c3c(=O)c(O[C@@H]4OC(CO)[C@@H](O)C(O)C4O[C@@H]4OC(CO)[C@@H](O)C(O)C4O)c(-c4ccc(O)c(OC(=O)/C=C/c5ccc(O)c(O)c5)c4)oc3c2)C(O)C(O)C1O (stereo partly shown) [Compound 1],,
15000 nM,CC1OC(Oc2cc(O)c3c(=O)c(O[C@@H]4OC(CO)[C@@H](O)C(O)C4O[C@@H]4OC(CO)[C@@H](O)C(O)C4O)c(-c4ccc(OC(=O)/C=C/c5ccc(O)c(O)c5)cc4)oc3c2)C(O)C(O)C1O (stereo partly shown) [Compound 2],,
1400 nM,CC1OC(Oc2cc(O)c3c(=O)c(OC4OC(C)C(O)C(O)C4O[C@@H]4OC(CO)[C@@H](O)[C@H](O)C4O)c(-c4ccc(O)c(OC(=O)/C=C/c5ccc(O)c(O)c5)c4)oc3c2)C(O)C(O)C1O (stereo partly shown) [Compound 3],strong activity for differentiation induction to small fat cells,
1100 nM,O=C(/C=C/c1ccc(O)c(O)c1)Oc1cc(-c2oc3cc(O)cc(O)c3c(=O)c2O[C@@H]2OC(CO)[C@@H](O)[C@H](O)C2O[C@@H]2OC(CO)[C@@H](O)[C@H](O)C2O)ccc1O (stereo partly shown) [Compound 4],strong activity for differentiation induction to small fat cells,
1500 nM,CC1OC(Oc2c(-c3ccc(O)c(OC(=O)/C=C/c4ccc(O)c(O)c4)c3)oc3cc(O[C@@H]4OC(CO)[C@@H](O)[C@H](O)C4O)cc(O)c3c2=O)C(O[C@@H]2OC(CO)[C@@H](O)[C@H](O)C2O)C(O)C1O (stereo partly shown) [Compound 5],,
1500 nM,O=C(/C=C/c1ccc(O)c(O)c1)Oc1cc(-c2oc3cc(O[C@@H]4OC(C(=O)O)[C@@H](O)C(O)C4O)cc(O)c3c(=O)c2O[C@@H]2OC(CO)[C@@H](O)C(O)C2O[C@@H]2OC(CO)[C@@H](O)C(O)C2O)ccc1O (stereo partly shown) [Compound 20],strong activity for differentiation induction to small fat cells,possess peroxidation-inhibiting activity
23000 nM,O=C(/C=C/c1ccc(O)c(O)c1)Oc1ccc(-c2oc3cc(O[C@@H]4OC(C(=O)O)[C@@H](O)C(O)C4O)cc(O)c3c(=O)c2O[C@@H]2OC(CO)[C@@H](O)C(O)C2O[C@@H]2OC(CO)[C@@H](O)C(O)C2O)cc1 (stereo partly shown) [Compound 21],strong activity for differentiation induction to small fat cells,possess peroxidation-inhibiting activity

# Source: patent publication US12559513B2, “Aromatic glycoside and method for producing the glycoside” (CAROTENOID-PRODUCTION TECHNOLOGY CORPORATION (CaroProTech), priority 2022, dated 2026)
